Reference: ChEMBL document CHEMBL1126434, “Anti-allergic and anti-inflammatory actions of 2-(tetrazole-5-yl)-4-hydroxy-2-methyl-2H-1,2-benzothiazine-3-carboxanilide 1,1-dioxide” (1992)

Experiments:
Format in all cases: functional
[1] = species: Rattus norvegicus; test: Compound was evaluated for the inhibition of biosynthesis of prostaglandins at a concentration of 10e3 M
[2] = species: Rattus norvegicus; test: Compound was evaluated for the inhibition of biosynthesis of prostaglandins at a concentration of 10e4 M
[3] = tested on: Rattus norvegicus; test: Compound was assessed for ulcerogenicity in rats at a dose of 300 mg/kg
[4] = tested on: Rattus norvegicus; test: Compound was assessed for ulcerogenicity in rats at a dose of 500 mg/kg
[5] = species: Rattus norvegicus; test: Compound was evaluated for the inhibition of biosynthesis of prostaglandins at a concentration of 10e5 M

Compound	Inhibition [1] [%]	Inhibition [2] [%]	Ulcer index [3]	Ulcer index [4]	Inhibition [5] [%]
CN1C(C(=O)Nc2ccccc2-c2nn[nH]n2)=C(O)c2ccccc2S1(=O)=O	0	0	0	0	0
COc1ccc(/C=C/C(=O)Nc2ccccc2C(=O)O)cc1OC [TRANILAST]	0	0	0	0	0
